Common to all, as to test: relative viability (nuclei count vs DMSO), 5 days (fraction); higher = more cells survive
Compound in the experiment “Elesclomol + Palbociclib”: CN(NC(=O)CC(=O)NN(C)C(=S)c1ccccc1)C(=S)c1ccccc1 [Elesclomol] + CC(=O)c1c(C)c2cnc(Nc3ccc(N4CCNCC4)cn3)nc2n(C2CCCC2)c1=O [Palbociclib] (partner 0.5 µM)
An outline of the steps: (§1)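 The day after seeding in 1536-well plates, lung cancer cell lines were treated by pin tool with a single drug, or with a fixed anchor-drug dose together with five library-drug doses (not always all listed) in √10 steps. After 5 days, a combined fix-and-stain solution (final 0.05% Triton X-100, 1% formaldehyde, 1 ug/ml Hoechst) was added. Nuclei counted on 4× images gave relative viability as treated counts over vehicle counts, reported as the median of duplicate plates.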

Compound in the experiment “Elesclomol + Luminespib”: CN(NC(=O)CC(=O)NN(C)C(=S)c1ccccc1)C(=S)c1ccccc1 [Elesclomol] + CCNC(=O)c1noc(-c2cc(C(C)C)c(O)cc2O)c1-c1ccc(CN2CCOCC2)cc1 [Luminespib] (partner 0.01 µM)
In outline: as §1

Compound in the experiment “Elesclomol + Linsitinib”: CN(NC(=O)CC(=O)NN(C)C(=S)c1ccccc1)C(=S)c1ccccc1 [Elesclomol] + C[C@]1(O)C[C@@H](c2nc(-c3ccc4ccc(-c5ccccc5)nc4c3)c3c(N)nccn32)C1 [Linsitinib] (partner 1 µM)
In outline:
as §1

Compound in the experiment “Elesclomol + AZD7762”: CN(NC(=O)CC(=O)NN(C)C(=S)c1ccccc1)C(=S)c1ccccc1 [Elesclomol] + NC(=O)Nc1cc(-c2cccc(F)c2)sc1C(=O)N[C@H]1CCCNC1 [AZD7762] (partner 0.2 µM)
An outline of the steps:
as §1

Compound in the experiment “Elesclomol + Olaparib”: CN(NC(=O)CC(=O)NN(C)C(=S)c1ccccc1)C(=S)c1ccccc1 [Elesclomol] + O=C(c1cc(Cc2n[nH]c(=O)c3ccccc23)ccc1F)N1CCN(C(=O)C2CC2)CC1 [Olaparib] (partner 8 µM)
An outline of the steps: as §1

As for NCI-H2405, the relative viability with Elesclomol + Palbociclib (first compound 0.003162 µM) was found to be 0.507; in the experiment with Elesclomol + Palbociclib (first compound 0.01 µM) it was 0.395; with Elesclomol + Palbociclib (first compound 0.03162 µM) it was 0.303; with Elesclomol + Palbociclib (first compound 0.1 µM) it was 0.28; with Elesclomol + Luminespib (first compound 0.003162 µM) it was 0.684; with Elesclomol + Luminespib (first compound 0.01 µM) it was 0.554. The relative viability in the experiment with Elesclomol + Luminespib (first compound 0.03162 µM) came to 0.265; with Elesclomol + Luminespib (first compound 0.1 µM), 0.299; with Elesclomol + Linsitinib (first compound 0.003162 µM) it was 0.899; with Elesclomol + Linsitinib (first compound 0.01 µM), 0.315; with Elesclomol + Linsitinib (first compound 0.03162 µM), 0.26; with Elesclomol + Linsitinib (first compound 0.1 µM), 0.27. The relative viability with Elesclomol + AZD7762 (first compound 0.003162 µM) worked out at 0.692; with Elesclomol + AZD7762 (first compound 0.01 µM), 0.576; with Elesclomol + AZD7762 (first compound 0.03162 µM) it was 0.269; with Elesclomol + AZD7762 (first compound 0.1 µM), 0.281; in the experiment with Elesclomol + Olaparib (first compound 0.003162 µM) it was 0.737; in the experiment with Elesclomol + Olaparib (first compound 0.01 µM), 0.693. In addition, the relative viability in the experiment with Elesclomol + Olaparib (first compound 0.03162 µM) is 0.386; with Elesclomol + Olaparib (first compound 0.1 µM), 0.353.

For NCI-H3122, the relative viability with Elesclomol + Palbociclib (first compound 0.003162 µM) was 0.161; in the experiment with Elesclomol + Palbociclib (first compound 0.01 µM) it was 0.205; with Elesclomol + Palbociclib (first compound 0.03162 µM), 0.167; with Elesclomol + Palbociclib (first compound 0.1 µM) it was 0.105; with Elesclomol + Luminespib (first compound 0.003162 µM) it was 0.083; in the experiment with Elesclomol + Luminespib (first compound 0.01 µM) it was 0.113. Also, the relative viability with Elesclomol + Luminespib (first compound 0.03162 µM) turned out to be 0.0663; with Elesclomol + Luminespib (first compound 0.1 µM), 0.0832; with Elesclomol + Linsitinib (first compound 0.003162 µM), 1.04; with Elesclomol + Linsitinib (first compound 0.01 µM), 1.07; with Elesclomol + Linsitinib (first compound 0.03162 µM), 0.956; with Elesclomol + Linsitinib (first compound 0.1 µM) it was 0.228. Also, the relative viability is 0.97 with Elesclomol + AZD7762 (first compound 0.003162 µM); 0.972 with Elesclomol + AZD7762 (first compound 0.01 µM); 0.912 in the experiment with Elesclomol + AZD7762 (first compound 0.03162 µM); 0.0974 with Elesclomol + AZD7762 (first compound 0.1 µM); 0.606 with Elesclomol + Olaparib (first compound 0.003162 µM); 0.665 with Elesclomol + Olaparib (first compound 0.01 µM). Also, the figures for the relative viability with Elesclomol + Olaparib (first compound 0.03162 µM) and in the experiment with Elesclomol + Olaparib (first compound 0.1 µM) were 0.563 and 0.105, respectively.

In the case of PC-3 [JPC-3], the relative viability with Elesclomol + Palbociclib (first compound 0.003162 µM) stood at 0.609; with Elesclomol + Palbociclib (first compound 0.01 µM) it was 0.495; with Elesclomol + Palbociclib (first compound 0.03162 µM), 0.456; with Elesclomol + Palbociclib (first compound 0.1 µM), 0.411; with Elesclomol + Luminespib (first compound 0.003162 µM), 0.706; with Elesclomol + Luminespib (first compound 0.01 µM), 0.612. Moreover, the relative viability in the experiment with Elesclomol + Luminespib (first compound 0.03162 µM) turned out to be 0.701; in the experiment with Elesclomol + Luminespib (first compound 0.1 µM), 0.447; with Elesclomol + Linsitinib (first compound 0.003162 µM) it was 0.958; with Elesclomol + Linsitinib (first compound 0.01 µM), 0.907; with Elesclomol + Linsitinib (first compound 0.03162 µM) it was 0.984; in the experiment with Elesclomol + Linsitinib (first compound 0.1 µM), 0.791. The relative viability with Elesclomol + AZD7762 (first compound 0.003162 µM) worked out at 0.741; in the experiment with Elesclomol + AZD7762 (first compound 0.01 µM), 0.539; with Elesclomol + AZD7762 (first compound 0.03162 µM), 0.438; with Elesclomol + AZD7762 (first compound 0.1 µM), 0.401; in the experiment with Elesclomol + Olaparib (first compound 0.003162 µM), 1.13; with Elesclomol + Olaparib (first compound 0.01 µM), 0.968. The relative viability with Elesclomol + Olaparib (first compound 0.03162 µM) turned out to be 0.728; in the experiment with Elesclomol + Olaparib (first compound 0.1 µM), 0.627.

Consider PC-14, for which the relative viability was determined as 0.317 in the experiment with Elesclomol + Palbociclib (first compound 0.003162 µM); 0.0274 in the experiment with Elesclomol + Palbociclib (first compound 0.01 µM); 0.02 in the experiment with Elesclomol + Palbociclib (first compound 0.03162 µM); 0.0209 in the experiment with Elesclomol + Palbociclib (first compound 0.1 µM); 0.11 in the experiment with Elesclomol + Luminespib (first compound 0.003162 µM); 0.0979 with Elesclomol + Luminespib (first compound 0.01 µM). Also, the relative viability was 0.0814 with Elesclomol + Luminespib (first compound 0.03162 µM); 0.0429 in the experiment with Elesclomol + Luminespib (first compound 0.1 µM); 0.98 in the experiment with Elesclomol + Linsitinib (first compound 0.003162 µM); 0.85 in the experiment with Elesclomol + Linsitinib (first compound 0.01 µM); 0.0931 in the experiment with Elesclomol + Linsitinib (first compound 0.03162 µM); 0.0455 with Elesclomol + Linsitinib (first compound 0.1 µM). For the same cell line, the relative viability with Elesclomol + AZD7762 (first compound 0.003162 µM) was 0.488; in the experiment with Elesclomol + AZD7762 (first compound 0.01 µM), 0.107; with Elesclomol + AZD7762 (first compound 0.03162 µM), 0.055; with Elesclomol + AZD7762 (first compound 0.1 µM), 0.0324; with Elesclomol + Olaparib (first compound 0.003162 µM), 0.287; in the experiment with Elesclomol + Olaparib (first compound 0.01 µM) it was 0.0846. In addition, the relative viability with Elesclomol + Olaparib (first compound 0.03162 µM) was 0.0176; with Elesclomol + Olaparib (first compound 0.1 µM), 0.0205.

Take RERF-LC-KJ: the relative viability is 0.911 in the experiment with Elesclomol + Palbociclib (first compound 0.003162 µM); 0.714 with Elesclomol + Palbociclib (first compound 0.01 µM); 0.581 with Elesclomol + Palbociclib (first compound 0.03162 µM); 0.288 with Elesclomol + Palbociclib (first compound 0.1 µM); 0.656 with Elesclomol + Luminespib (first compound 0.003162 µM); 0.418 with Elesclomol + Luminespib (first compound 0.01 µM). The relative viability with Elesclomol + Luminespib (first compound 0.03162 µM) was determined as 0.34; in the experiment with Elesclomol + Luminespib (first compound 0.1 µM) it was 0.457; with Elesclomol + Linsitinib (first compound 0.003162 µM), 0.897; with Elesclomol + Linsitinib (first compound 0.01 µM), 0.752; in the experiment with Elesclomol + Linsitinib (first compound 0.03162 µM) it was 0.412; in the experiment with Elesclomol + Linsitinib (first compound 0.1 µM) it was 0.322. Further, the relative viability with Elesclomol + AZD7762 (first compound 0.003162 µM) was 1; with Elesclomol + AZD7762 (first compound 0.01 µM), 0.868; in the experiment with Elesclomol + AZD7762 (first compound 0.03162 µM), 0.741; with Elesclomol + AZD7762 (first compound 0.1 µM) it was 0.297; with Elesclomol + Olaparib (first compound 0.003162 µM), 0.613; in the experiment with Elesclomol + Olaparib (first compound 0.01 µM), 0.473. For the same cell line, the values for the relative viability in the experiment with Elesclomol + Olaparib (first compound 0.03162 µM) and with Elesclomol + Olaparib (first compound 0.1 µM) were 0.326 and 0.323, respectively.

For the origin of these results see the supplement of paper PMC10307832.
